Measured values reported in patent US9556135B2, “Amino-dihydrothiazine and amino-dioxido dihydrothiazine compounds as beta-secretase antagonists and methods of use” (Amgen Inc., priority 2012, dated 2017).

Test system: Abeta 40
Assay: In vivo inhibition of beta-secretase: Abeta 40 reduction in CSF and brain of the rat
Settings: 10 mpk (unless otherwise noted), after 4 hrs
From the text: In Vivo Inhibition of Beta-Secretase
Several animal models, including mouse, rat, dog, and monkey, may be used to screen for inhibition of beta-secretase activity in vivo following administration of a test compound sample. Animals used in this invention can be wild type, transgenic, or gene knockout animals. […] One to twenty-four hours following the administration of compound, animals are sacrificed, and brains as well as cerebrospinal fluid (CSF) and plasma are removed for analysis of A-beta levels and drug or test compound concentrations (Dovey et al., 2001, Journal of Neurochemistry, 76, 173-181) Beginning at time 0, animals are administered by oral gavage, or other means of delivery such as intravenous injection, an inhibitory test compound of up to 100 mg/kg in a standard, conventional formulation, such as 2% hydroxypropyl methylcellulose, 1% Tween80. A separate group of animals receive 2% hydroxypropyl methylcellulose, 1% Tween80 alone, containing no test compound, and serve as a vehicle-control group. At the end of the test period, animals are sacrificed and brain tissues, plasma or cerebrospinal fluid are collected. Brains are either homogenized in 10 volumes (w/v) of 0.2% diethylamine (DEA) in 50 mM NaCl (Best et al., 2005, Journal of Pharmacology and Experimental Therapeutics, 313, 902-908), or in 10 volumes of 0.5% TritonX-100 in Tris-buffered saline (pH at about 7.6). Homogenates are centrifuged at 355,000 g, 4° C. for 30 minutes. CSF or brain supernatants are then analyzed for the presence of A-beta peptide by specific sandwich ELISA assays based on ECL (Electrochemiluminescence) technology. For example, rat Abeta40 is measured using biotinylated-4G8 (Signet) as a capture antibody and Fab40 (an in-house antibody specific to the C-terminal of Abeta40) as a detection antibody.
Actual vehicles used: Oral: 2% HPMC, 1% Tween80, pH 2.2

Row | SMILES | % reduction of rat CSF levels at 10 pmk [%] | % reduction of rat brain levels at 10 mpk [%]
1 | COc1ccc(C(=O)Nc2cnc(F)c([C@]3(C)CS(=O)(=O)C(C)(C)C(N)=N3)c2)nc1 [Example 401, N-(5-((3R)-5-amino-3,6,6-trimethyl-1,1-dioxido-3,6-dihydro-2H-1,4-thiazin-3-yl)-6-fluoro-3-pyridinyl)-5-methoxy-2-pyridinecarboxamide] | 69 | 48
2 | C[C@@]1(c2cc(NC(=O)c3ccc(Cl)cn3)ccc2F)CS(=O)(=O)C2(CC(F)(F)C2)C(N)=N1 [Example 120, (R)—N-(3-(9-amino-2,2-difluoro-7-methyl-5,5-dioxido-5-thia-8-azaspiro[3.5]non-8-en-7-yl)-4-fluorophenyl)-5-chloropicolinamide] | 39 | 18
3 | CC1(C)C(N)=N[C@](C)(c2cc(NC(=O)c3cnc(OCC(F)(F)F)cn3)ccc2F)CS1(=O)=O [Example 346, N-(3-((3R)-5-amino-3,6,6-trimethyl-1,1-dioxido-3,6-dihydro-2H-1,4-thiazin-3-yl)-4-fluorophenyl)-5-(2,2,2-trifluoroethoxy)-2-pyrazinecarboxamide] | 69 | 48
4 | CC1(C)C(N)=N[C@](C)(c2cc(NC(=O)c3ccc(Cl)cn3)ccc2F)CS1(=O)=O [Example 19, N-(3-((3R)-5-amino-3,6,6-trimethyl-1,1-dioxido-3,6-dihydro-2H-1,4-thiazin-3-yl)-4-fluorophenyl)-5-chloro-2-pyridinecarboxamide] | 83 | 74
5 | CC1(C)C(N)=N[C@](C)(c2cc(Nc3ncnc4cc(Cl)cnc34)ccc2F)C(F)S1(=O)=O (stereo partly drawn) [Example 228, N-(3-((3R)-5-amino-2-fluoro-3,6,6-trimethyl-1,1-dioxido-3,6-dihydro-2H-1,4-thiazin-3-yl)-4-fluorophenyl)-7-chloropyrido[3,2-d]pyrimidin-4-amine] | 67 | 58
6 | Cc1cc(OC(F)F)cnc1C(=O)Nc1ccc(F)c([C@]2(C)CS(=O)(=O)C(C)(C)C(N)=N2)c1 [Example 144, (R)—N-(3-(5-amino-3,6,6-trimethyl-1,1-dioxido-3,6-dihydro-2H-1,4-thiazin-3-yl)-4-fluorophenyl)-5-(difluoromethoxy)-3-methylpicolinamide] | 79 | 72
7 | CC#CCOc1cnc(C(=O)Nc2ccc(F)c([C@@]3(C)N=C(N)C(C)(C)S(=O)(=O)C3F)c2)cn1 (stereo partly drawn) [Example 332, N-(3-((3R)-5-amino-2-fluoro-3,6,6-trimethyl-1,1-dioxido-3,6-dihydro-2H-1,4-thiazin-3-yl)-4-fluorophenyl)-5-(2-butyn-1-yloxy)-2-pyrazinecarboxamide] | 24 | 11
8 | Cc1cc(OC(F)F)cnc1C(=O)Nc1ccc(F)c([C@@]2(C)N=C(N)C(C)(C)S(=O)(=O)C2F)c1 (stereo partly drawn) [Example 330, N-(3-((3R)-5-amino-2-fluoro-3,6,6-trimethyl-1,1-dioxido-3,6-dihydro-2H-1,4-thiazin-3-yl)-4-fluorophenyl)-5-(difluoromethoxy)-3-methyl-2-pyridinecarboxamide] | 78 | 72
9 | Cc1cc(Cl)cnc1C(=O)Nc1ccc(F)c([C@]2(C)CS(=O)(=O)[C@@](C)(F)C(N)=N2)c1 [Example 388, N-(3-((3R,6R)-5-amino-6-fluoro-3,6-dimethyl-1,1-dioxido-3,6-dihydro-2H-1,4-thiazin-3-yl)-4-fluorophenyl)-5-chloro-3-methyl-2-pyridinecarboxamide] | 33 | 7
10 | Cc1cc(OC(F)F)cnc1C(=O)Nc1ccc(F)c([C@]2(C)CS(=O)(=O)[C@@](C)(F)C(N)=N2)c1 [Example 321, N-(3-((3R,6R)-5-amino-6-fluoro-3,6-dimethyl-1,1-dioxido-3,6-dihydro-2H-1,4-thiazin-3-yl)-4-fluorophenyl)-5-(difluoromethoxy)-3-methyl-2-pyridinecarboxamide] | 44 | 37
11 | Cc1cc(Cl)cnc1C(=O)Nc1ccc(F)c([C@@]2(C)N=C(N)C(C)(C)S(=O)(=O)C2F)c1 (stereo partly drawn) [Example 331, N-(3-((3R)-5-amino-2-fluoro-3,6,6-trimethyl-1,1-dioxido-3,6-dihydro-2H-1,4-thiazin-3-yl)-4-fluorophenyl)-5-chloro-3-methyl-2-pyridinecarboxamide] | 67 | 59
12 | CC1(C)C(N)=N[C@](CF)(c2cc(Nc3ncnc4cc(Cl)cnc34)ccc2F)CS1(=O)=O [Example 235, N-(3-((3S)-5-amino-3-(fluoromethyl)-6,6-dimethyl-1,1-dioxido-3,6-dihydro-2H-1,4-thiazin-3-yl)-4-fluorophenyl)-7-chloropyrido[3,2-d]pyrimidin-4-amine] | 38 | 14
13 | CC1(C)C(N)=N[C@](C)(c2cc(Nc3ncc(F)c4cc(C#N)cnc34)ccc2F)CS1(=O)=O [Example 76, (R)-8-((3-(5-Amino-3,6,6-trimethyl-1,1-dioxido-3,6-dihydro-2H-1,4-thiazin-3-yl)-4-fluorophenyl)amino)-5-fluoro-1,7-naphthyridine-3-carbonitrile] | 60 | 46
14 | COc1ccc(C(=O)Nc2ccc(F)c([C@]3(CF)CS(=O)(=O)C(C)(C)C(N)=N3)c2)nc1 [Example 457, N-(3-((3S)-5-amino-3-(fluoromethyl)-6,6-dimethyl-1,1-dioxido-3,6-dihydro-2H-1,4-thiazin-3-yl)-4-fluorophenyl)-5-methoxy-2-pyridinecarboxamide] | 67 | 50
15 | COc1cnc2c(Nc3ccc(F)c([C@]4(CF)CS(=O)(=O)C(C)(C)C(N)=N4)c3)ncc(F)c2c1 [Example 159, (S)-5-amino-3-(2-fluoro-5-((5-fluoro-3-methoxy-1,7-naphthyridin-8-yl)amino)phenyl)-3-(fluoromethyl)-6,6-dimethyl-3,6-dihydro-2H-1,4-thiazine 1,1-dioxide] | 45 | 31
16 | CC1(C)C(N)=N[C@](C)(c2cc(Nc3ncnc4cc(C#N)cnc34)ccc2F)C(F)S1(=O)=O (stereo partly drawn) [Example 229, 4-((3-((3R)-5-amino-2-fluoro-3,6,6-trimethyl-1,1-dioxido-3,6-dihydro-2H-1,4-thiazin-3-yl)-4-fluorophenyl)amino)pyrido[3,2-d]pyrimidine-7-carbonitrile] | 61 | 43
